According to patent publication US5492919A, “5-HT4 receptor antagonists” (SmithKline Beecham p.l.c., priority 1991, dated 1996):

How the values were obtained:
[1] = biological target: T1, 5-HT4 receptor (Cavia porcellus, UniProt O70528); test: 5-HT4 receptor antagonist activity: guinea pig colon (longitudinal muscle-myenteric plexus preparations), reduction of 5-HT-evoked contractions; assay type: cell-based; conditions: for activity in guinea pig colon, in words: relative to compounds generally active at pIC50 = 6 or more
T1 construct: Longitudinal muscle-myenteric plexus preparations, approximately 3 cm long, are obtained from the distal colon region; from tissue; host or cells: guinea pig distal colon, longitudinal muscle-myenteric plexus preparation
Description: (§1) 5-HT4 RECEPTOR ANTAGONIST ACTIVITY
Male guinea-pigs, weighing 250-400 g are used. Longitudinal muscle-myenteric plexus preparations, approximately 3 cm long, are obtained from the distal colon region. These are suspended under a 0.5 g load in isolated tissue baths containing Krebs solution bubbled with 5% CO2 in O2 and maintained at 37° C. In all experiments, the Krebs solution also contains methiothepin 10^-7 M and granisetron 10^-6 M to block effects at 5-HT1, 5-HT2 and 5-HT3 receptors.
After construction of a simple concentration-response curve with 5-HT, using 30s contact times and a 15rain dosing cycle, a concentration of 5-HT is selected so as to obtain a contraction of the muscle approximately 40-70% maximum(10^-9 M approx). The tissue is then alternately dosed every 15 min with this concentration of 5-HT and then with an approximately equi-effective concentration of the nicotine receptor stimulant, dimethylphenylpiperazinium (DMPP). After obtaining consistent responses to both 5-HT and DMPP, increasing concentrations of a putative 5-HT4 receptor antagonist are then added to the bathing solution. The effects of this compound are then determined as a percentage reduction of the contractions evoked by 5-HT or by DMPP. […] A compound which reduces the response to 5-HT but not to DMPP is believed to act as a 5-HT4 receptor antagonist.

[2] = biological target: T2, 5-HT4 receptor (Sus scrofa, UniProt Q6Q253); test: 5-HT4 receptor antagonist activity: piglet atria, piglet spontaneous beating screen; assay type: cell-based
T2 construct: functional antagonism (pKB)
Description: as §1
Compounds were tested in the piglet spontaneous beating screen (Naunyn-Schmiedeberg's Arch. Pharmacol 342, 619-622). pKB (-log10 KB) value for the compound of Example 21 of EP-A-328200 was 7.6.

T1 sequence (O70528 whole entry): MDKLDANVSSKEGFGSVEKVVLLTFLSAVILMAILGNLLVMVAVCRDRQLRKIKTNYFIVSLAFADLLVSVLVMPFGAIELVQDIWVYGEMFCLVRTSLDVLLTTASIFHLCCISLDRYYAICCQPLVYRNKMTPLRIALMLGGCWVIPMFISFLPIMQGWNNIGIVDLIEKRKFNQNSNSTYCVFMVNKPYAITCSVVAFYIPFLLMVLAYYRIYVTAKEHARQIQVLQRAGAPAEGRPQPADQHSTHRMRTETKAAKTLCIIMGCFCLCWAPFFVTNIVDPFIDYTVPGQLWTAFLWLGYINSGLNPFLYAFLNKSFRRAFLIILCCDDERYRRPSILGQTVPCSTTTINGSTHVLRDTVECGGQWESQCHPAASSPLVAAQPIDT
T2 sequence (Q6Q253 1-402): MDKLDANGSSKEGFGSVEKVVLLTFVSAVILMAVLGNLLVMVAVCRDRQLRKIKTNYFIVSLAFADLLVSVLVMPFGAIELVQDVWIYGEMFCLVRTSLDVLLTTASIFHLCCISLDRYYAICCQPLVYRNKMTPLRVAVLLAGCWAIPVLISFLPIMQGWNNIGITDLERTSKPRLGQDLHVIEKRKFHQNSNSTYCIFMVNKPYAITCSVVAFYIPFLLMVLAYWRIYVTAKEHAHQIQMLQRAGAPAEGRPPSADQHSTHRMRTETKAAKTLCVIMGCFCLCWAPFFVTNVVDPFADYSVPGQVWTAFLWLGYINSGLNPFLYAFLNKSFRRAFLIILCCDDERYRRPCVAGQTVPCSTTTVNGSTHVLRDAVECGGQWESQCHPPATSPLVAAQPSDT

IC50 ([1]; 5-HT approx 10^-9 M, Krebs solution with methiothepin 10^-7 M and granisetron 10^-6 M, 37° C, read-out: pIC50 (-log concentration of antagonist which reduces the contraction by 50%) (converted))	pKB (-log10 KB) [2]	activity in guinea pig colon, in words [1]	Structure (SMILES)
50.1 nM	7.6		Cn1cc(-c2noc(CCN3CCCCC3)n2)c2ccccc21 [Example 21 of EP-A-328200, 1-methyl-3-[5-(2-(1-piperidyl)ethyl)-1,2,4-oxadiazol-3-yl]indole]
		particularly good activity	CCCCN(C)CCCc1nc(-c2cn(C)c3ccccc23)no1 [Example E1, 5-[3-(N-Methylbutylamino)propyl]-3-[1-methyl-1H-indol-3-yl]-1,2,4-oxadiazole]
		particularly good activity	CCCCN1CCC(Cc2nc(-c3cn(C)c4ccccc34)no2)CC1 [Example E3]
